Laboratory results reported in PubChem BioAssay (NCI).
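Step 1: Grow cells in 96-well plates. Step 2: Expose to compound for 48 hours at 5 concentrations. Step 3: Interpolate endpoints linearly; if unreached, use highest concentration. At the TGI there is no net growth.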

How the values were obtained:
Test in all cases: NCI tumour cell line growth inhibition, 48 h
DLD-1 colon = tested on: DLD-1 colon
DMS 273 small cell lung = tested on: DMS 273 small cell lung
HOP-18 NSCLC = tested on: HOP-18 NSCLC
HOP-62 NSCLC = tested on: HOP-62 NSCLC
HT29 colon = tested on: HT29 colon
KM20L2 colon = tested on: KM20L2 colon
M19-MEL melanoma = tested on: M19-MEL melanoma
NCI-H23 lung = tested on: NCI-H23 lung
SF-539 CNS = tested on: SF-539 CNS
SNB-78 CNS = tested on: SNB-78 CNS
DMS 114 small cell lung = tested on: DMS 114 small cell lung
LXFL 529 NSCLC = tested on: LXFL 529 NSCLC

Compound	TGI (DLD-1 colon) [µM]	TGI (DMS 273 small cell lung) [µM]	TGI (HOP-18 NSCLC) [µM]	TGI (HOP-62 NSCLC) [µM]	TGI (HT29 colon) [µM]	TGI (KM20L2 colon) [µM]	TGI (M19-MEL melanoma) [µM]	TGI (NCI-H23 lung) [µM]	TGI (SF-539 CNS) [µM]	TGI (SNB-78 CNS) [µM]	TGI (DMS 114 small cell lung) [µM]	TGI (LXFL 529 NSCLC) [µM]
Cc1n(CC(C)C)c2c([n+]1CC(=O)c1ccc([N+](=O)[O-])cc1)C(=O)c1ccccc1C2=O	0.797	0.161	0.202	1.15	0.55	0.113	< 0.0175	< 0.0142	< 0.0387	0.107	–	–
Oc1c2c(c3c4c1N=CC=4CCN=3)C1(C=C(Br)C(O)C(Br)=C1)CCN2 (stereo not given)	3.95	3.45	23.5	33.4	2.15	3.26	1.05	2.64	4.17	10.4	0.718	–
Cc1n(-c2ccccc2)c2c([n+]1Cc1ccc([N+](=O)[O-])cc1)C(=O)c1ccccc1C2=O	19.4	3.87	17.7	16.6	6.43	9.84	2.93	5.22	3.88	6.88	1.49	2.76
Nc1ccn(CC(CO)CC(c2ccccc2)P(=O)(O)O)c(=O)n1 (stereo not given)	> 100	> 100	> 100	> 100	> 100	> 100	> 100	> 100	> 100	> 100	> 100	> 100
